target: D(2) dopamine receptor (Rattus norvegicus, UniProt P61169); test: Inhibition of [3H](-)-sulpiride binding to rat striatum dopamine receptor D2; format: tissue-based
Sequence (P61169 whole entry): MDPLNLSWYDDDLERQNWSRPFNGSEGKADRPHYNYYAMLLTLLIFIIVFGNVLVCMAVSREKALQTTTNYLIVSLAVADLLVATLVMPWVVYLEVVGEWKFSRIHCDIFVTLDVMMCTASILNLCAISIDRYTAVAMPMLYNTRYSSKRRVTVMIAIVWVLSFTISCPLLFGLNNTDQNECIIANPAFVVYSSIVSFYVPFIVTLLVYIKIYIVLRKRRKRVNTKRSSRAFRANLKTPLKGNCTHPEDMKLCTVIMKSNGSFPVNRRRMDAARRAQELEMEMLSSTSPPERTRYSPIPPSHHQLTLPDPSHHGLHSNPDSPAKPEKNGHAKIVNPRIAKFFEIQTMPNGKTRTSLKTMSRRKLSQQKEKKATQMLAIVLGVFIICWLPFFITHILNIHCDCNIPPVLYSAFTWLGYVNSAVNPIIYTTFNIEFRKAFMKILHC

Compound	IC50
c1ccc(CCN2CC[C@H]3c4ccccc4CC[C@H]3C2)cc1	162 nM
CCCCN1CCC2c3ccccc3CCCC2C1 (configuration not stated)	166 nM
COc1ccc(CN2CC[C@H]3c4ccccc4CC[C@H]3C2)cc1	35.5 nM
CCCCN1CCC2=C(CCCc3ccccc32)C1	61.7 nM
CCCCN1CCC2=C(Cc3ccccc32)C1	60.3 nM
CCCCN1CCC2=C(CCc3ccccc32)C1	63.1 nM
CCCCN1CC[C@@H]2c3ccccc3CC[C@H]2C1	389 nM
O=[N+]([O-])c1ccc(CCN2CC[C@H]3c4ccccc4CC[C@H]3C2)cc1	589 nM
c1ccc2c(c1)CC[C@H]1CN(C3CCCCC3)CC[C@@H]21	2690 nM
CCCCN1CC[C@H]2c3ccccc3CC[C@H]2C1	145 nM
c1ccc2c(c1)CC[C@H]1CN(C34C[C@H]5C[C@@H](C3)C[C@@H](C4)C5)CC[C@@H]21	> 10000 nM
CC(C)(C)c1ccc(CN2CC[C@H]3c4ccccc4CC[C@H]3C2)cc1	288 nM
